“Also recorded” adds a separate entry of the source.

Here are results for 1 substance from US11911468B2, “Compositions and methods of treating sarcoma lung metastasis” (CASE WESTERN RESERVE UNIVERSITY, priority 2017, dated 2024).

This test relates to K7M2-luc2 pOS (VCAM-1/α4β1 interaction). Nature of the test: Established pOS after K7M2-luc2 i.v., weekly intranasal blockade of VCAM-1/a4 from Day 7. Format: in vivo, Balb/c mice. The settings on record: 50 μg i.n. weekly from Day 7. As to the method: FIGS. 9A-C illustrate targeting site-specific VCAM-1/a4 interaction blunted established pOS growth in vivo. (A) Balb/c mice were inoculated with 5×10^5 K7M2-luc2 i.v. on Day 0, and then treated with i.n. PBS, 50 μg iVCAM-1p, or 50 μg PS/2 (anti-a4) antibody weekly starting on Day 7. (A) representative images of mice up to 35 days. […] (C) 60% and 80% of pOS mice remained tumor free 1 month after weekly i.n. treatment with PS/2 antibody (filled circle) or iVCAM-1p (filled triangle), respectively. N=5-8 in each cohort.
To strengthen the crucial link between tVCAM-1 and α4β1 (FIGS. 5-8) and pOS survival, we performed pilot experiments to test whether direct functional blockade of VCAM-1/α4β1 interaction in the lung would result in the same pOS outcome as observed with MACs depletion. In collaboration with Nicole Steinmetz in CWRU School of Engineering, we treated mice (inoculated 7 days prior with a lethal dose of K7M2 i.v.) with weekly i.n. administration of 50 μg of a VCAM-1 inhibitory peptide (iVCAM-1p; amino acid sequence: VHPKQHR (SEQ ID NO: 1)). […] These pilot observations strengthen our hypothesis that pOS-MAC critically interact through the VCAM-1/α4 axis. […] As we administered mAb via i.n. route, much of the reported side effects of chronic systemic Natalizumab exposure (such as hepatic injury and progressive multifocal leukoencephalopathy) can potentially be limited by reducing the dose and targeting locally in the lung.

In the case of VHPKQHR [iVCAM-1p], the pOS tumor incidence entry is “dramatic decreased” and the “tumor burden (relative BLI intensity, Day 7 BLI set as 1)” value is listed as “dramatic decreased; also recorded: reduced tumor burden”. Also, where the note is “1 month after treatment”, the “mice remaining tumor free” value stood at 80%.
